Experimental data reported in publication PMC7261188 (Nucleic Acids Research, 2020).
pKd: −log10 of the molar value.

Molecular target: SFTSV CBD (cap-binding domain of SFTSV L protein) (Severe fever with thrombocytopenia syndrome virus, UniProt I0DF35)
Assay: biochemical

SFTSV CBD (cap-binding domain of SFTSV L protein), sequence (I0DF35 1695-1810 limits assumed): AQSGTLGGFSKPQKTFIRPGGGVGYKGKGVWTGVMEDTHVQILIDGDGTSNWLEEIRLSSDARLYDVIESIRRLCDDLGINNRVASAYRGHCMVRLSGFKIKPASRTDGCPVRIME

`C[n+]1cn([C@@H]2O[C@H](COP(=O)(O)OP(=O)(O)OP(=O)(O)O)[C@@H](O)[C@H]2O)c2nc(N)[nH]c(=O)c21` [m^7GTP] was tested, and the pKd was ~3.86.
